Experimental data published in ChEMBL document CHEMBL3734726, “An abietane diterpene from Salvia cuspidata and some new derivatives are active against Trypanosoma cruzi” (Bioorg Med Chem Lett, 2015).
Values after ≈ are worked out from the molar mass of the structure shown. Active and inactive are the calls of the source. The calls are words filed in the database; no cut-off is given here.

What was measured:
Trypanosoma cruzi [1] = assay: Antitrypanosomal activity against epimastigote stage of Trypanosoma cruzi Dm28c assessed as parasite viability at 1 ug/ml after 24 hrs by eosin exclusion based hemocytometry; format: functional
[2] = Cytotoxicity against african green monkey Vero cells assessed as cell viability at 2 ug/ml after 24 hrs by eosin staining based microscopy; conditions: chlorocebus sabaeus, read-out: Activity
[3] = Cytotoxicity against african green monkey Vero cells assessed as cell viability at 1 ug/ml after 24 hrs by eosin staining based microscopy; conditions: chlorocebus sabaeus, read-out: Activity
Trypanosoma cruzi [4] = assay: Antitrypanosomal activity against epimastigote stage of Trypanosoma cruzi Dm28c assessed as parasite viability at 5 ug/ml after 24 hrs by eosin exclusion based hemocytometry; format: functional
Trypanosoma cruzi [5] = assay: Antitrypanosomal activity against epimastigote stage of Trypanosoma cruzi Dm28c assessed as reduction in parasite viability at after 24 hrs by eosin exclusion based hemocytometry; format: functional, organism-based
Trypanosoma cruzi [6] = assay: Antitrypanosomal activity against epimastigote stage of Trypanosoma cruzi Dm28c assessed as parasite viability at 10 ug/ml after 24 hrs by eosin exclusion based hemocytometry; format: functional
[7] = Cytotoxicity against african green monkey Vero cells assessed as cell viability at 10 ug/ml after 24 hrs by eosin staining based microscopy; conditions: chlorocebus sabaeus, read-out: Activity
[8] = Cytotoxicity against african green monkey Vero cells assessed as cell viability at 5 ug/ml after 24 hrs by eosin staining based microscopy; conditions: chlorocebus sabaeus, read-out: Activity
Trypanosoma cruzi [9] = assay: Antitrypanosomal activity against epimastigote stage of Trypanosoma cruzi Dm28c assessed as parasite viability at 2 ug/ml after 24 hrs by eosin exclusion based hemocytometry; format: functional
Trypanosoma cruzi [10] = assay: Trypanocidal activity against epimastigote stage of Trypanosoma cruzi Dm28c assessed as induction of vacuolization at 5 ug/ml after 48 hrs by lead citrate staining based microscopy; format: functional, organism-based

Row | IC50 (Trypanosoma cruzi [5]) [µg/mL] | SMILES | Parasite viability (Trypanosoma cruzi [1]) [%] | viability at 24 h, 2 ug/ml [2] [%] | viability at 24 h, 1 ug/ml [3] [%] | Parasite viability (Trypanosoma cruzi [4]) [%] | Parasite viability (Trypanosoma cruzi [6]) [%] | viability at 24 h, 10 ug/ml [7] [%] | viability at 24 h, 5 ug/ml [8] [%] | Parasite viability (Trypanosoma cruzi [9]) [%] | Activity (Trypanosoma cruzi [10])
1 | 2 (≈ 4.82 µM) | CC(C)C1=C(O[Si](C)(C)C)C(=O)C2=C(C=C[C@@H]3[C@]24CCC[C@]3(C)C(=O)OC4)C1=O | 85.5 | 99.6 | 99.7 | 29.5 | 15.3 | 83.6 | 99.1 | 49.5 | 
2 |  | C=CCOC1=C(C(C)C)C(=O)C2=C(C1=O)[C@]13CCC[C@](C)(C(=O)OC1)[C@@H]3C=C2 | 85.5 | 99.6 | 99.8 | 29.5 | 18.3 | 85.5 | 99.1 | 65.5 | 
3 | 5 (≈ 14.6 µM) | CC(C)C1=C(O)C(=O)C2=C(C=C[C@@H]3[C@]24CCC[C@]3(C)C(=O)OC4)C1=O | 99.2 | 99.5 | 99.2 | 49.7 | 16.3 | 88.4 | 98.8 | 76.4 | Active
4 |  | CC(=O)OC1=C(C(C)C)C(=O)C2=C(C1=O)[C@]13CCC[C@](C)(C(=O)OC1)[C@@H]3C=C2 | 99.2 | 99.7 | 99.8 | 39.5 | 16.3 | 92.4 | 99.2 | 89.5 | 
